Data as given in patent publication US8501791B2, “1,2,4-thiadiazolium derivatives as melanocortin receptor modulators” (Ortho-McNeil Pharamaceutical, Inc., priority 2001, dated 2013).
“And” between values parts separate entries of the source, which are not always exact repeats. Equal values may be shown once.

How the values were obtained:
human sebocytes = assay: Sebaceous lipid synthesis by sebaceous cells (14C acetate, HPTLC); format: cell-based; settings: seven day treatment
Method: Semiconfluent cultures of 3T3 mouse fibroblasts (Swiss Albino mouse, ATCC CCL-92) were treated with mitomycin C (4 μg/ml) for 3 hours, trypsinized and seeded at a density of 2.5×10^5/9.5 cm^2 tissue culture plate in Dulbeccos Minimal Essential Medium (DMEM) containing 10% Colorado Calf Serum, PNC (100 U/ml), STM (100 μg/ml), L glutamine (0.3 mg/ml), sodium pyruvate (1 mM) and nonessential amino acids (100 μM). The cells were incubated at 37° C. for 24 hours prior to their use as a feeder layer for sebocytes.
Human sebocytes were isolated from Dermatome shavings of postoperative pieces of human skin at 0.4-0.8 mm depths (this part of the skin was previously shown to be enriched in sebaceous glands). […] Cells so obtained were filtered through nylon mesh (100μ pore size), centrifuged at 750 RPM, re-suspended in GM and counted. […]
Hormones, mixture of hormones i.e. bovine pituitary extract or compounds to be tested were added to the culture at the beginning of phase III. […] This method relies on visualization of neutral lipids by Nile red and quantitation by reading of fluorescence at 535 nm excitation, 580 nm emission using a plate reader. The lipid synthesis was evaluated by radioactive labeling using ^14C acetate and quantified by Bio Rad Phosphoimager (Molecular Imager, FX) using 4.1 Software. […]

[1] = tested on: human skin transplanted to the SCID mouse; assay: Human skin-SCID mouse chimera model, sebum production; format: in vivo, SCID mouse with human skin graft
Excerpt: Severe combined immunodeficient mice (SCID) provide an invaluable model for skin xenografting. These animals are devoid of both T and B cell immunity. Human skin grafts in SCID mice retain human cellular tissue components including skin immune cells, i.e. Langerhans cells, macrophages and lymphocytes and also part of the engrafted endothelium (Kaufman R., et al., Exp. Dermatol. 1993:2:209-216, 1993). These properties allow for the study of physiological and/or pathological responses of human skin cells to a test compound.
C.B-17 scid/scid mice (Taconic, Germantown, N.Y.) were used for grafting at 5-6 weeks of age. Full thickness human facial skin was shaved to ˜0.4 mm using a Forman Dermatome. The skin shavings were washed 3 times in antibiotics and antimycotics (penicillin, streptomycin, fungizone) (Life technologies) in Dulbecco's Modified Eagle Medium (DMEM, Life Technologies). Elliptical skin ˜2.0-2.5×1.0-1.5 was grafted onto the prepared graft bed and sutured using 4.0 silk. During surgical procedures the mice were anaesthetized using a mixture of Ketaset (0.16 mg/g body weight) and Rompun (8.0 μg/g body weight).
It is well accepted that the wound healing process of the transplanted skin in the SCID mouse takes one month, at which time the human skin can be used for experimental purposes. […] Maximum size of the glands was observed 3 month post transplantation. The glands retained their capability to produce human specific sebum and the glandular tissue expressed human specific markers including MC5-R. Since glands reached their maximum size at 2-3 month post transplantation the effects of inhibitors of sebum secretion was tested at this point.
Mice at 2-3 month post transplantation with human facial skin were used for the studies. The graft area was treated with the test compound at the desired concentration(s) dissolved in polyethylene glycol-ethanol (20 μl/2 cm^2). Controls were treated with vehicle alone. The test compounds were applied daily, excluding weekends. Sebum secretion was determined using Sebutape at 15 days and 30 days following treatment.
The termination of the experiment was determined by preliminary clinical evaluation of sebum production using SEBUTAPE. At this time human skin grafts were excised and representative samples were collected for histological evaluation. More particularly, 2 mm punch biopsies were prepared and used for evaluation of lipid synthesis and total lipid accumulation in the treated tissues.
The collected 2 mm punch biopsies were placed individually into 96 well plates in Krebs buffer and labeled with 10 μCi of ^14C acetate for 3 hours. Following this labeling period the samples were washed in medium and 5 biopsies pooled, weighed, and used for lipid extraction. The lipid extraction and analysis by HPTLC was the same as described for tissue culture derived cells. […]

[2] = molecular target: T1, melanocortin MC-4 receptor (Homo sapiens, UniProt P32245); assay: Melanocortin MC-4 Receptor Binding Assay (SPA); settings: 125I-NDP-melanocyte stimulating hormone
T1 construct: purchased Receptor Biology Inc
Method: Radioactive ligand ^125I-NDP-melanocyte stimulating hormone [NEN, 2000 Ci/mmol] was added to each well (48.54 per well, […] final concentration). The plate was then sealed and let stand for 16 hr at 25° C. NDP-Melanocyte stimulating hormone peptide and α-melanocyte stimulating hormone peptide [purchased from Palomar Research Inc, 1 μM] were used as reference inhibitor compounds to define non-specific binding (N). Total binding (T) was defined using 30% DMSO-50 mM HEPES, pH 7.4 buffer. Bound radioactivity for each well (Y), measured at counts per minute (cpm) was measured in a TopCount [Packard, Calif.]. Percent inhibition was calculated as: […]

rabbit adipocytes = settings: read-out: EC50 lipolytic activity; cited from earlier work
[3] = tested on: facial nerve compression, whisker movement; assay: In vivo facial nerve compression model; design: species or system rat; settings: positive control s.c., 70 ug/each 48 hr
Excerpt: The ability of test compound to provide neuro-protective or neuro-regenerative effects was investigated in a facial nerve compression model. Facial nerve motor axons arise exclusively from neurons within the pons in a well-defined nucleus. Facial nerve compression results in retrograde reactions proximal to the lesion site and Wallerian degeneration at its distal part, which causes diminished whisker movement on the lesioned side. […] The right facial nerve was exposed and compressed with forceps for 30 sec at its exit from the stylomastoid foramen. The left facial nerve was sham-operated and served as an internal control. […] After recovery from anesthesia, the rats were randomly divided into groups for dosing with vehicle, αMSH or test compound, with 6 animals per group. αMSH (s.c., 70 ug/each 48 hr) was used as a positive control. Test compounds were dosed p.o. at 20 mg/kg bid for 14 days. Restoration of whisker movement was monitored daily after the operation using two criteria: (1) frequency of whisker movement on the lesioned side relative to the opposite side (sham-operated) which served as the baseline control (2) semi-quantitative measurements (0 to 4+) on strength of the whisker muscles, characterized based on observation of the percentage of moved whiskers, muscle tone of whisker muscles, and the position of the nose. For all observations, the experimental design was blind to the behavioral observer. […] The recovery rate of the whisker movement was expressed as percentage of its own internal control (sham-operated), as listed in Table 8.

[4] = tested on: Food-Deprived Rats (MC-4); assay: Rodent feeding: food intake in food-deprived rats (MC-4); format: in vivo, rat; settings: 10 mg/kg, ip
Method: Male Long-Evans rats (180-200 grams) were housed individually and maintained on a once-a-day feeding schedule (i.e. 10 a.m. until 4 p.m.) for five days following quarantine to allow the animals to acclimate to feeding on powdered chow (#5002 PMI Certified Rodent Meal) during the allotted time. The chow was made available in an open jar, anchored in the cage by a wire, with a metal follower covering the food to minimize spillage. Water was available ad-libitum.
Animals were fasted for 18 hours prior to testing. At the end of the fasting period, animals were administered either a test compound or vehicle. Vehicle and test compound were administered either orally (5 mL/kg) 60 minutes prior to the experiment, subcutaneously (1 mL/kg) 30 minutes prior to the experiment, or intraperitoneally (1 mL/kg) 30 minutes prior to the experiment. Test compounds were administered orally as a suspension in aqueous 0.5% methylcellulose-0.4% Tween 80, or intraperitoneally as a solution or suspension in PEG 200; compound concentrations typically ranged from 1 mg/kg to 100 mg/kg, preferably from 10-30 mg/kg. Food intake was measured at 2, 4, and 6 hours after administration by weighing the special jar containing the food before the experiment and at the specified times. Upon completion of the experiment, all animals were given a one-week washout period before re-testing.

[5] = 30 Day Treatment, topical 0.01%
[6] = 30 Day Treatment, topical 0.05%
[7] = human sebaceous lipids, 11 Day Treatment, topical 0.01%
[8] = human sebaceous lipids, 11 Day Treatment, topical 0.1%
[9] = human sebaceous lipids, 11 Day Treatment, topical 0.5%

T1 sequence (P32245 whole entry): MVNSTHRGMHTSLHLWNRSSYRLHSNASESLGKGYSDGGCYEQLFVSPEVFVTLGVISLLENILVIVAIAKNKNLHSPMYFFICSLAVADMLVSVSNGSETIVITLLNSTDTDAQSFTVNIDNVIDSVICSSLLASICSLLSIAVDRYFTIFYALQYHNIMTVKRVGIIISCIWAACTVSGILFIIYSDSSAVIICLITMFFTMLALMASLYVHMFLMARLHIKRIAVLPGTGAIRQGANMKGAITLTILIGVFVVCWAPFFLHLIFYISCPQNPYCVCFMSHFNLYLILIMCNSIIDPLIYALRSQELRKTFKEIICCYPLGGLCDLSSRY

COc1ccccc1-c1nc(Nc2ccccc2)s[n+]1-c1ccccc1OC.[Br-] [Compound 74, 2-(2-methoxyphenyl)-3-(2-methoxyphenyl)-5-phenylamino-[1,2,4]-thiadiazol-2-ium]
lipid synthesis, radioactively labeled lipids separated by HPTLC (human sebocytes): inhibition of squalene, cholesterol esters and wax esters
lipid granules in sebocyte cultures, visual (human sebocytes; stained cell cultures): complete disappearance of lipid granules
% Inh @ 0.01% Cholesterol Ester, Lipid Accumulation [1, 5]: 44%
% Inh @ 0.01% Cholesterol, Lipid Accumulation [1, 5]: 33%
% Inh @ 0.01% Cholesterol, Sebaceous Lipid Synthesis [1, 5]: 33%
% Inh @ 0.01% Squaline, Lipid Accumulation [1, 5]: 82%
% Inh @ 0.01% Squaline, Sebaceous Lipid Synthesis [1, 5]: 80%
% Inh @ 0.01% Triglycerides, Lipid Accumulation [1, 5]: 75%
% Inh @ 0.01% Triglycerides, Sebaceous Lipid Synthesis [1, 5]: 75%
% Inh @ 0.01% Wax Esters, Lipid Accumulation [1, 5]: 86%
% Inh @ 0.01% Wax Esters, Sebaceous Lipid Synthesis [1, 5]: 86%
% Inh @ 0.05% Cholesterol Ester, Lipid Accumulation [1, 6]: 21%
% Inh @ 0.05% Cholesterol, Lipid Accumulation [1, 6]: 82%
% Inh @ 0.05% Cholesterol, Sebaceous Lipid Synthesis [1, 6]: 82%
% Inh @ 0.05% Squaline, Lipid Accumulation [1, 6]: 73%
% Inh @ 0.05% Squaline, Sebaceous Lipid Synthesis [1, 6]: 90%
% Inh @ 0.05% Triglycerides, Lipid Accumulation [1, 6]: 90%
% Inh @ 0.05% Triglycerides, Sebaceous Lipid Synthesis [1, 6]: 90%
% Inh @ 0.05% Wax Esters, Lipid Accumulation [1, 6]: 93%
% Inh @ 0.05% Wax Esters, Sebaceous Lipid Synthesis [1, 6]: 93%
total sebaceous lipid accumulation and de novo synthesis of sebaceous lipids ([1]; 30 days of topical treatment with 0.05% and 0.01% solution): significantly decreased
% Inh @ 0.01% Squalene [1, 7]: 0%
% Inh @ 0.01% Triglycerides [1, 7]: 0%
% Inh @ 0.01% W/E [1, 7]: 25%
% Inh @ 0.1% Squalene [1, 8]: 70%
% Inh @ 0.1% Triglycerides [1, 8]: 50%
% Inh @ 0.1% W/E [1, 8]: 80%
% Inh @ 0.5% Squalene [1, 9]: 0%
% Inh @ 0.5% Triglycerides [1, 9]: 0%
% Inh @ 0.5% W/E [1, 9]: 10%

COc1ccccc1-[n+]1sc(Nc2ccc(Cl)cc2)nc1-c1ccc(C)cc1 [Compound 70]
IC50 [2]: 566 nM

α-MSH
EC50 (rabbit adipocytes): 3.7 nM
Percent Recovery of whisker movement D9 ([3]; D9): 2.0 ± 2.8%
Percent Recovery of whisker movement D10 ([3]; D10): 24.6 ± 15.8%
Percent Recovery of whisker movement D11 ([3]; D11): 60.1 ± 19.3%
Percent Recovery of whisker movement D12 ([3]; D12): 93.8 ± 14.0%
Percent Recovery of whisker movement D13 ([3]; D13): 98.1 ± 5.3%
Percent Recovery of whisker movement D14 ([3]; D14): 100 ± 0.0%

c1ccc(CNc2nc(-c3ccccc3)[n+](-c3ccccc3)s2)cc1 [Compound 84]
Change in Food Intake 2-6 hrs (%) [4]: −24.5% and −17.8%
